Series [1] concerns the target T1, vitamin D receptor (Homo sapiens, UniProt P11473).
T1 sequence (P11473 1-427): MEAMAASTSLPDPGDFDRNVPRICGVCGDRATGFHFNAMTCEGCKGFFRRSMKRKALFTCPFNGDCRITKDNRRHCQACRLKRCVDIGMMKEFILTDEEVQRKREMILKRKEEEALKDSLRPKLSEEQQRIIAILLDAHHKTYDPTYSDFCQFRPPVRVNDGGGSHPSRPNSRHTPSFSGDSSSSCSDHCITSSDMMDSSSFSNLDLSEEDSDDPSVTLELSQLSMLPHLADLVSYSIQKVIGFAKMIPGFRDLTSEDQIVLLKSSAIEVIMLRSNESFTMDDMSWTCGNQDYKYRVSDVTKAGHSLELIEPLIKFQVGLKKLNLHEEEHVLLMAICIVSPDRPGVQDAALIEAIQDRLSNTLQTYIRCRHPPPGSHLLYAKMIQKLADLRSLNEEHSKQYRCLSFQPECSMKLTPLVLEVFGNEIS
As to conditions: agonism at the vitamin D receptor without 1α-hydroxylation; cited from earlier work.

Series [2] in a line: Chemical stability of neat, crystalline vitamin D3 at 40° C. and various humidities. Format: physicochemical. The following applies: one week. As to the method: Stability of neat, crystalline vitamin D3 was investigated at 40° C. and 5%, 20%, 50%, 75% relative humidity (% RH) over the course of one week. This experiment was used as a baseline for comparison of vitamin D3 stability after formulation as indicated above. A pronounced dependence of degradation rate upon relative humidity was observed, as depicted in FIG. 1. Under low humidity conditions, loss of active occurred at a rate of 0.58%/day and 0.76%/day at 5% RH and 20% RH, respectively.

Series [3] in a line: Stability of amorphous vitamin D3 cast as a thin film. Format: physicochemical. The source says:
In an additional experiment, vitamin D3 was cast as a thin film by evaporating a solution of vitamin D in ethyl acetate and the stability of this amorphous form of vitamin D was also investigated. […] The results of this and the previous experiment highlight the inherently low stability of vitamin D and the impact of both humidity and physical form (crystalline vs. amorphous) on degradation rates.

Take `C=C1CC[C@H](O)C/C1=C/C=C1\CCC[C@]2(C)[C@@H]([C@H](C)CCCC(C)(C)O)CC[C@@H]12` [25-hydroxy-cholecalciferol]: the “intrinsic activity, fold lower than that of 1α,25-dihydroxy-cholecalciferol” value in series [1] was “about 100 fold”.
Turning to `C=C1CC[C@H](O)C/C1=C/C=C1\CCC[C@]2(C)[C@@H]([C@H](C)CCCC(C)C)CC[C@@H]12` [vitamin D3, cholecalciferol], the “rate of loss of active” value in series [2] (5% RH) worked out at 0.58 %/day; in series [2] (20% RH), 0.76 %/day. The degradation rate came to 5.5 %/day in series [2] (50% RH) and 10.8 %/day in series [2] (75% RH). For the same compound, the “degradation after 3 days” value in series [3] (25° C.), in series [3] (40° C.) and in series [3] (40° C./75% RH) was “Essentially complete degradation” throughout.

The values above are taken from US20060019933A1, “Process for preparing stabilized vitamin D” (priority 2004, published 2006).
